# Test results from PubChem BioAssay (NCI).
#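 Cells were grown in 96-well plates and exposed to each compound for 48 hours at five concentrations; endpoints were interpolated linearly between bracketing concentrations, or set to the highest concentration if not reached. GI50 is the concentration that inhibits growth by half. TGI: concentration producing complete growth inhibition.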
# Experiments:
# Assay in all cases: NCI anticancer screen, dose series, 48 h
# NCI-H226 lung = tested on: NCI-H226 lung
# NCI-H23 lung = tested on: NCI-H23 lung
# NCI-H460 lung = tested on: NCI-H460 lung
# NCI-H522 lung = tested on: NCI-H522 lung
# NCI/ADR-RES ovarian = tested on: NCI/ADR-RES ovarian
# OVCAR-3 ovarian = tested on: OVCAR-3 ovarian
# OVCAR-4 ovarian = tested on: OVCAR-4 ovarian
# OVCAR-5 ovarian = tested on: OVCAR-5 ovarian
# OVCAR-8 ovarian = tested on: OVCAR-8 ovarian
# PC-3 prostate = tested on: PC-3 prostate
# RPMI-8226 leukemia = tested on: RPMI-8226 leukemia
# RXF 393 renal = tested on: RXF 393 renal
# SF-268 CNS = tested on: SF-268 CNS
# SF-295 CNS = tested on: SF-295 CNS
# SF-539 CNS = tested on: SF-539 CNS
# SK-MEL-2 melanoma = tested on: SK-MEL-2 melanoma
# SK-MEL-28 melanoma = tested on: SK-MEL-28 melanoma
# SK-OV-3 ovarian = tested on: SK-OV-3 ovarian
# SN12C renal = tested on: SN12C renal
# SNB-19 CNS = tested on: SNB-19 CNS
# SNB-75 CNS = tested on: SNB-75 CNS
# SR leukemia = tested on: SR leukemia
# SW-620 colon = tested on: SW-620 colon
# T-47D breast = tested on: T-47D breast
# TK-10 renal = tested on: TK-10 renal
# U251 CNS = tested on: U251 CNS
# UACC-257 melanoma = tested on: UACC-257 melanoma
# UACC-62 melanoma = tested on: UACC-62 melanoma
# UO-31 renal = tested on: UO-31 renal
smiles,measurement,setting,value
C/C(=N\Nc1ccc(Cl)cn1)c1ccc2ccccc2n1,TGI,NCI-H226 lung,> 100 µM
same,GI50,NCI-H23 lung,3.55 µM
same,TGI,NCI-H23 lung,> 100 µM
same,GI50,NCI-H460 lung,2920 nM
same,TGI,NCI-H460 lung,19.6 µM
same,GI50,NCI-H522 lung,3.24 µM
same,TGI,NCI-H522 lung,> 100 µM
same,GI50,NCI/ADR-RES ovarian,2160 nM
same,TGI,NCI/ADR-RES ovarian,> 100 µM
same,GI50,OVCAR-3 ovarian,545 nM
same,TGI,OVCAR-3 ovarian,> 100 µM
same,GI50,OVCAR-4 ovarian,1520 nM
same,TGI,OVCAR-4 ovarian,> 100 µM
same,GI50,OVCAR-5 ovarian,5.44 µM
same,TGI,OVCAR-5 ovarian,> 100 µM
same,GI50,OVCAR-8 ovarian,3.04 µM
same,TGI,OVCAR-8 ovarian,> 100 µM
same,GI50,PC-3 prostate,3.44 µM
same,TGI,PC-3 prostate,> 100 µM
same,GI50,RPMI-8226 leukemia,2050 nM
same,TGI,RPMI-8226 leukemia,> 100 µM
same,GI50,RXF 393 renal,2950 nM
same,TGI,RXF 393 renal,> 100 µM
same,GI50,SF-268 CNS,2750 nM
same,TGI,SF-268 CNS,> 100 µM
same,GI50,SF-295 CNS,3.06 µM
same,TGI,SF-295 CNS,> 100 µM
same,GI50,SF-539 CNS,2570 nM
same,TGI,SF-539 CNS,27.6 µM
same,GI50,SK-MEL-2 melanoma,6.67 µM
same,TGI,SK-MEL-2 melanoma,> 100 µM
same,GI50,SK-MEL-28 melanoma,3.6 µM
same,TGI,SK-MEL-28 melanoma,> 100 µM
same,GI50,SK-OV-3 ovarian,3.73 µM
same,TGI,SK-OV-3 ovarian,> 100 µM
same,GI50,SN12C renal,3.19 µM
same,TGI,SN12C renal,> 100 µM
same,GI50,SNB-19 CNS,3.3 µM
same,TGI,SNB-19 CNS,> 100 µM
same,GI50,SNB-75 CNS,3.3 µM
same,TGI,SNB-75 CNS,> 100 µM
same,GI50,SR leukemia,1680 nM
same,TGI,SR leukemia,36.1 µM
same,GI50,SW-620 colon,3.83 µM
same,TGI,SW-620 colon,> 100 µM
same,GI50,T-47D breast,3.48 µM
same,TGI,T-47D breast,68.4 µM
same,GI50,TK-10 renal,6.31 µM
same,TGI,TK-10 renal,> 100 µM
same,GI50,U251 CNS,2830 nM
same,TGI,U251 CNS,> 100 µM
same,GI50,UACC-257 melanoma,5.33 µM
same,TGI,UACC-257 melanoma,97.3 µM
same,GI50,UACC-62 melanoma,3.25 µM
same,TGI,UACC-62 melanoma,> 100 µM
same,GI50,UO-31 renal,1740 nM
same,TGI,UO-31 renal,12.9 µM
